# Source: paper PMC5004293, “Characterization of FRM-36143 as a new γ-secretase modulator for the potential treatment of familial Alzheimer’s disease” (Alzheimer's Research & Therapy, 2016)
# “Also recorded” adds a separate entry of the source.
# Assays:
# [1] = Compound exposure in mice (LC-MS/MS, brain tissue binding); type: in vivo; settings: mouse
# Method: (§1) Mice and rats were maintained on 12/12 h light/dark cycle with food available ad libitum. Drug treatment was prepared in a vehicle of 1 % carboxymethylcellulose (CMC):Tween80 (99.5:0.5). Twelve-week-old wild-type male mice (129S6, Taconic Biosciences, Hudson, NY, USA) or rats (Wistar, Charles River Laboratories) were administered compound p.o. without prior fasting and euthanized by CO2 asphyxiation at specified times post-dosing. After extraction of the brain, the olfactory bulb and hindbrain were removed and the cerebral hemispheres separated (mice) or cut in 4 pieces (rats). The cerebellum was removed for bioanalysis of the compound. CSF was collected from the cisterna magna and blood from a cardiac puncture.
# Cerebellums were homogenized in a Mini-BeadBeater (Biospec Products, Inc., Bartlesville, OK, USA). Brain samples, plasma, and CSF were prepared for LC-MS/MS by precipitating proteins with acetonitrile and vacuum filtration in the presence of an internal standard. Standards were prepared in the corresponding matrix. FRM-36143 was resolved by HPLC (Shimadzu) using a reverse-phase C18 Kinetex column (30X2.1 mM; Phenomenex, Torrance, CA, USA). Following separation, the column effluent was introduced into a triple quadrupole mass spectrometer (API 5500, Applied Biosystems), optimized for detection of FRM-36143 and using multiple reaction monitoring with mass transition of 390.3 > 215.2.
# The unbound fraction in brain homogenate (fu,b) was determined in triplicate in the Rapid Equilibrium Dialysis device (8000 Da molecular weight cut-off membrane, Thermo Scientific/Pierce Biotechnology, Rockford, IL, USA). Briefly, FRM-36143 stock solution (0.1 mg/mL in acetonitrile) was added to fresh mouse brain homogenate (1:4 dilution with PBS) to achieve a final concentration of 1 μg/mL. Aliquots of the brain homogenate (300 μL) were loaded into the donor side, and 500 μL of PBS into the receiver side of the dialyzer. […]
# γ-secretase [2] = test: Immunoprecipitation / MALDI-TOF mass spectrometry of Aβ peptides in H4 cell media; type: cell-based, human; settings: 300 nM, overnight
# Method: Human neuroglioma H4 cells stably expressing wild-type human APP751 were used for this assay. Briefly, cells were plated at 15,000 cells/well in 96-well plates and left to settle for 6 h (37 °C; 5 % CO2). Cells were then washed three times with Pro293™ chemically defined medium (Lonza, Walkersville, MD, USA) followed by the addition of the compound (0.3 % final DMSO). Plates were incubated overnight, and the supernatant was removed for quantification of Aβ peptides by sandwich enzyme-linked immunosorbent assay (ELISA) (see below). Cytotoxicity was evaluated using Cell-Titer 96 W AQueous One Solution Cell Proliferation Assay (MTS Assay, Promega) according to the manufacturer’s protocol.
# Immunoprecipitation of carboxyl-terminally truncated Aβ peptides from 4 mL of H4 cell media was conducted using the anti-Aβ antibody 6E10 (epitope 3–8 of Aβ; Covance, Inc., Dedham, MA, USA) or 4G8 (epitope 18–22 of Aβ; Covance, Inc., Dedham, MA, USA) coupled to magnetic beads as described elsewhere. After elution of the immunoprecipitated Aβ peptides, the detection was performed on an UltraFlextreme MALDI-TOF/TOF instrument (Bruker Daltonics, Bremen, Germany).
# γ-secretase [3] = test: Acute oral treatment of wild-type mice, brain Aβ peptides; type: in vivo, mouse
# Method: For in vivo assessment of compound efficacy, brain tissue and cerebrospinal fluid (CSF) were collected, snap frozen in liquid nitrogen, and stored at −80 °C. Brain hemispheres were homogenized in 0.6 % diethylamine (DEA) in 50 mM NaCl containing protease inhibitor cocktail (cOmplete mini, EDTA-free, Roche) using sonication (Branson) at 23 % amplitude for 30 s. Homogenates were spun at 227,000 × g for 25 min at 4 °C. Supernatants were diluted fivefold in PBS-T (0.05 % Tween-20) containing 0.67 % BSA and added to the ELISA plate. For CSF, samples were diluted threefold in the PBS-T/BSA buffer. Detection was performed using the SuperSignal™ ELISA Femto substrate (Thermo Fisher), and luminescence was read on an EnVision plate reader (Perkin Elmer).
# as §1
# [4] = Compound exposure in rats (LC-MS/MS, brain tissue binding); type: in vivo; settings: Wistar, oral, rat, 30 mg/kg, 6 h post-dose
# Method: as §1
# Cerebellums were homogenized in a Mini-BeadBeater (Biospec Products, Inc., Bartlesville, OK, USA). Brain samples, plasma, and CSF were prepared for LC-MS/MS by precipitating proteins with acetonitrile and vacuum filtration in the presence of an internal standard. Standards were prepared in the corresponding matrix. FRM-36143 was resolved by HPLC (Shimadzu) using a reverse-phase C18 Kinetex column (30X2.1 mM; Phenomenex, Torrance, CA, USA). […]
# The unbound fraction in brain homogenate (fu,b) was determined in triplicate in the Rapid Equilibrium Dialysis device (8000 Da molecular weight cut-off membrane, Thermo Scientific/Pierce Biotechnology, Rockford, IL, USA). […]
# [5] = WT mice, single oral dose 30 mg/kg, 6 h post-treatment
# [6] = mice, time course 0.5-24 h, 30 mg/kg p.o.
# [7] = mice, time course, 30 mg/kg p.o.
structure (smiles),measurement,setting,value
"COc1nc(C2=NOC[C@H](c3cc4ccccc4o3)N2)ccc1-n1cnc(C)c1 [FRM-36143, (R)-5-(benzofuran-2-yl)-3-(6-methoxy-5-(4-methyl-1H-imidazol-1-yl)pyridin-2-yl)-5,6-dihydro-4H-1,2,4-oxadiazine]",concentration at 6 h,"[1]; male, 129S6, brain (unbound), 30 mg/kg oral, 6 h",427 nM
same,Unbound brain Cmax,[1]; 10 mg/kg oral,235 nM
same,Exposure or efficacy at higher dose,"[1]; 90 mg/kg vs 30 mg/kg, data not shown",did not achieve significantly higher exposure or efficacy
same,Percentage change (vs. DMSO) Aβ1–33,γ-secretase [2],161%
same,Percentage change (vs. DMSO) Aβ1–34,γ-secretase [2],125%
same,Percentage change (vs. DMSO) Aβ1–37,γ-secretase [2],407%
same,Percentage change (vs. DMSO) Aβ1–38,γ-secretase [2],126%
same,Percentage change (vs. DMSO) Aβ1–39,γ-secretase [2],46%
same,Percentage change (vs. DMSO) Aβ1–40,γ-secretase [2],26%
same,Percentage change (vs. DMSO) Aβ1–42,γ-secretase [2],21%
same,Percentage change (vs. DMSO) Aβ5–38,γ-secretase [2],150%
same,Percentage change (vs. DMSO) Aβ5–40,γ-secretase [2],40%
same,Normalized AUC Aβ1–33,γ-secretase [2]; semi-quantitative,2.9
same,Normalized AUC Aβ1–34,γ-secretase [2]; semi-quantitative,0.5
same,Normalized AUC Aβ1–37,γ-secretase [2]; semi-quantitative,23.6
same,Normalized AUC Aβ1–38,γ-secretase [2]; semi-quantitative,15
same,Normalized AUC Aβ1–39,γ-secretase [2]; semi-quantitative,1.6
same,Normalized AUC Aβ1–40,γ-secretase [2]; semi-quantitative,10
same,Normalized AUC Aβ1–42,γ-secretase [2]; semi-quantitative,0.4
same,Normalized AUC Aβ5–37,γ-secretase [2]; semi-quantitative,1.9
same,Normalized AUC Aβ5–38,γ-secretase [2]; semi-quantitative,1.5
same,Normalized AUC Aβ5–40,γ-secretase [2]; semi-quantitative,1.2
same,Brain Aβ37 increase vs vehicle,γ-secretase [3]; [5],3.2 fold
same,Brain Aβ42 reduction vs vehicle,γ-secretase [3]; [5],43%
same,Calculated AUC0→24h of brain Aβ40 reduction,"γ-secretase [3]; mice, 30 mg/kg p.o.",31%
same,Calculated AUC0→24h of brain Aβ42 reduction,"γ-secretase [3]; mice, 30 mg/kg p.o.",34%
same,Peak reduction of brain Aβ40,γ-secretase [3]; [6],40%
same,Peak reduction of brain Aβ42,γ-secretase [3]; [6],45%
same,Change of brain Aβ37 and Aβ38,"γ-secretase [3]; mice, time course, 10 mg/kg p.o.",induced an increase in Aβ37 and Aβ38
same,Reduction of brain Aβ40 and Aβ42,"γ-secretase [3]; mice, time course, 10 mg/kg p.o., 10 mg/kg",did not reduce Aβ40 and Aβ42 to a great extent; also recorded: did not observe any efficacy
same,Peak increase of brain Aβ37,γ-secretase [3]; [7],3.1 fold
same,Peak increase of brain Aβ38,γ-secretase [3]; [7],2 fold
same,concentration at 6 h,"[4]; CSF, read-out: CSF concentration",122 nM
same,concentration at 6 h,"[4]; brain (unbound), calculated using brain tissue binding, read-out: Unbound brain exposure",156 nM
